From patent publication US20090209568A1, “Spiro [Benzopyran] or Spiro [Benzofuran] Derivatives Which Inhibit the Sigma Receptor” (priority 2006, published 2009)

Tests used:
σ1-receptor = target: T1, σ1-receptor (Cavia porcellus, UniProt Q60492); assay: Sigma-1 receptor radioligand binding, [3H](+)pentazocine (Version A / Version B); parameters: species or system guinea pig; conditions: for inhibition at 0.1 µM: compound 10^−7 M; for inhibition at 0.1 µM / inhibition at 0.01 µM / % Binding σ1 10^−6 M: guinea pig brain membranes; for inhibition at 0.01 µM: compound 10^−8 M; for % Binding σ1 10^−6 M: compound 10^−6 M; for Ki: value in parentheses below the % binding, guinea pig brain
T1 construct: guinea pig brains were homogenized in 10 vols; (w/v) of Tris-HCl 50 mM 0.32 M sucrose; from tissue; host or cells: guinea pig brain membranes
Method: Brain membrane preparation and binding assays for the σ1-receptor were performed as described (DeHaven-Hudkins et al., 1992) with some modifications. In brief, guinea pig brains were homogenized in 10 vols. (w/v) of Tris-HCl 50 mM 0.32 M sucrose, pH 7.4, with a Kinematica Polytron PT 3000 at 15000 r.p.m. for 30 s. The homogenate was centrifuged at 1000 g for 10 min at 4° C. and the supernatants collected and centrifuged again at 48000 g for 15 min at 4° C. The pellet was resuspended in 10 volumes of Tris-HCl buffer (50 mM, pH 7.4), incubated at 37° C. for 30 min, and centrifuged at 48000 g for 20 min at 4° C. Following this, the pellet was resuspended in fresh Tris-HCl buffer (50 mM, pH 7.4) and stored on ice until use.
Each assay tube contained 10 μL of [^3H](+)pentazocine (final concentration of 0.5 nM), 900 μL of the tissue suspension to a final assay volume of 1 mL and a final tissue concentration of approximately 30 mg tissue net weight/mL. Non-specific binding was defined by addition of a final concentration of 1 μM haloperidol. All tubes were incubated at 37° C. for 150 min before termination of the reaction by rapid filtration over Schleicher & Schuell GF 3362 glass fibre filters [previously soaked in a solution of 0.5% polyethylenimine for at least 1 h]. Filters were then washed with four times with 4 mL of cold Tris-HCl buffer (50 mM, pH 7.4). Following addition of scintillation cocktail, the samples were allowed to equilibrate overnight. The amount of bound radioactivity was determined by liquid scintillation spectrometry using a Wallac Winspectral 1414 liquid scintillation counter. Protein concentrations were determined by the method of Lowry et al. (1951).
In brief the σ1-receptor preparation was prepared from guinea pig brain. The brains were homogenized in 5 to 6 times of volume sucrose solution (0.32M) and homogenized. The homogenate was centrifuged at 2900 rpm, 4° C., 10 min). the supernatant was centrifuged again (23500×g, 4° C., 20 min). The pellet was resuspended in Tris-buffer, incubated for 30 min at room temperature and centrifuged f (23500×g, 4° C., 20 min). The pellet was resuspended in cold TRIS-buffer and homogenized. Then the protein content was measured (approx. 1.5 mg/mL) and the homogenate frozen at −80° C. for later use.
The radioligand used was [^3H]-(+)-Pentazocin in TRIS-buffer. In a volume of 200 μL 50 μL TRIS-buffer, 50 μL compound solution of varying concentration, 50 μL radioligand-solution (8 nM; resulting in 2 nM in the assay) and finally 50 μL of receptor preparation (approx. 1.5 mg/mL) were given into a well of a microplate equipped with a filter. The plate was closed and stirred for 2.5 h at 37° C. and 500 rpm. Following that the solvents were removed by a harvester through the filter. After rinsing with H2O the filter was measured in a scintillation counter ([^3H]-protocol).

σ2-receptor = assay: Sigma-2 receptor radioligand binding, [3H]-DTG (Version A / Version B); parameters: species or system mice (Version A, σ1 knockout brain) / rat (Version B, liver); conditions: compound 10^−6 M
Method: Binding studies for σ2-receptor were performed as described (Radesca et al., 1991) with some modifications. In brief, brains from sigma receptor type I (σ1) knockout mice were homogenized in a volume of 10 mL/g tissue net weight of ice-cold 10 mM Tris-HCl, pH 7.4, containing 320 mM sucrose (Tris-sucrose buffer) with a Potter-Elvehjem homogenizer (10 strokes at 500 r.p.m.) The homogenates were then centrifuged at 1000 g for 10 min at 4° C., and the supernatants were saved. The pellets were resuspended by vortexing in 2 mL/g ice-cold Tris-sucrose buffer and centrifuged again at 1000 g for 10 min. The combined 1000 g supernatants were centrifuged at 31000 g for 15 min at 4° C. The pellets were resuspended by vortexing in 3 mL/g 10 mM Tris-HCl, pH 7.4, and the suspension was kept at 25° C. for 15 min. Following centrifugation at 31000 g for 15 min, the pellets were resuspended by gentle Potter Elvehjem homogenization to a volume of 1.53 mL/g in 10 mM Tris-HCl pH 7.4.
The assay tubes contained 10 μL of [^3H]-DTG (final concentration of 3 nM), 400 μL of the tissue suspension (5.3 mL/g in 50 mM Tris-HCl, pH 8.0) to a final assay volume of 0.5 mL. Non-specific binding was defined by addition of a final concentration of 1 μM haloperidol. All tubes were incubated at 25° C. for 120 min before termination of the reaction by rapid filtration over Schleicher & Schuell GF 3362 glass fibre filters [previously soaked in a solution of 0.5% polyethylenimine for at least 1 h]. Filters were washed with three times with 5 mL volumes of cold Tris-HCl buffer (10 mM, pH 8.0). Following addition of scintillation cocktail samples were allowed to equilibrate overnight. The amount of bound radioactivity was determined by liquid scintillation spectrometry using a Wallac Winspectral 1414 liquid scintillation counter. Protein concentrations were determined by the method of Lowry et al. (1951).
In brief the σ2-Receptor preparation was prepared from rat liver. The livers were homogenized in 5 to 6 times of volume sucrose solution (0.32M) and homogenized. The homogenate was centrifuged at 2900 rpm, 4° C., 10 min). the supernatant was centrifuged again (31000×g, 4° C., 20 min). The pellet was resuspended in TRIS-buffer, incubated for 30 min at room temperature while stirring and centrifuged f (31000×g, 4° C., 20 min). The pellet was resuspended in cold TRIS-buffer pH 8 and homogenized. Then the protein content was measured (approx. 2 mg/mL) and the homogenate frozen at −80° C. for later use.
The radioligand used was [^3H]-Ditolylguanidin in TRIS-buffer pH 8. The σ1-receptor binding sites were masked through (+)-Pentazocin-solution in TRIS-Puffer pH 8.
In a volume of 200 μL 50 μL compound solution of varying concentration, 50 μL (+Pentazocin-solution (2 μM; resulting in 500 nM in the assay), 50 μL radioligand-solution (12 nM; resulting in 3 nM in the assay) and finally 50 μL of receptor preparation (approx. 2 mg/mL) were given into a well of a microplate equipped with a filter. The plate was closed and stirred for 2 h at room temperature and 500 rpm. Following that the solvents were removed by a harvester through the filter. After rinsing with H2O the filter was measured in a scintillation counter ([^3H]-protocol).

T1 sequence (Q60492 whole entry): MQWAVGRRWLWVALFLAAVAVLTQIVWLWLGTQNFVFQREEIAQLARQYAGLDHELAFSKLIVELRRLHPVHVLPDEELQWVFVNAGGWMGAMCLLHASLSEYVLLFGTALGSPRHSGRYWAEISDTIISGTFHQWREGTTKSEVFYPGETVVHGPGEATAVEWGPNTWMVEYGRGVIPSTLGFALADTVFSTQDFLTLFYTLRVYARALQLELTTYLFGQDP

Structure (SMILES)	inhibition at 0.1 µM (σ1-receptor) [%]	inhibition at 0.01 µM (σ1-receptor) [%]	% Binding σ1 10^−6 M (σ1-receptor)	% Binding σ2 10^−6 M (σ2-receptor) [%]	other results
CO[C@@H]1Cc2ccccc2[C@@]2(CCCN(CCCc3ccccc3)C2)O1 (relative stereo) [Example 6, cis-3-Methoxy-1′-(3-phenylpropyl)-3,4-dihydrospiro[[2]benzopyran-1,3′-piperidin]]	–	–	38.8%	32.2	–
CCCCCCCCN1CCC2(CC1)OC(OC)Cc1ccccc12 (centres unmarked) [Example 37]	–	–	103.9%	72.6	–
COC1OC2(CC[N+]3(CCCC3)CC2)c2ccccc21.[Br-] (centres unmarked)	–	–	–	–	melting point: 124 °C
CO[C@@H]1Cc2ccccc2[C@]2(CCCN(CCCc3ccccc3)C2)O1 (relative stereo) [Example 7, trans-3-Methoxy-1′-(3-phenylpropyl)-3,4 dihydrospiro[[2]benzopyran-1,3′-piperidin]]	–	–	14^ %	54.3	–
CCCCN1CCC2(CC1)OC(OC)Cc1ccccc12 (centres unmarked) [Example 36]	–	–	100.8%	39.7	Ki (σ1-receptor): 2.3 nM
CO[C@@H]1Cc2ccccc2[C@@]2(CCCN(Cc3ccccc3)C2)O1 [Example 1, cis-1′-Benzyl-3-methoxy-3,4-dihydrospiro[[2]benzopyran-1,3′-piperidin]]	34	–	–	–	–
CO[C@@H]1Cc2ccccc2[C@]2(CCCN(Cc3ccccc3)C2)O1 (relative stereo) [Example 2, trans-1′-Benzyl-3-methoxy-3,4-dihydrospiro[[2]benzopyran-1,3′-piperidin]]	–	–	12.9%	27.8	–
COC1Cc2ccccc2C2(CCCNC2)O1 (centres unmarked)	–	–	–	–	melting point: 54 to 58 °C

Second part, led by results:

inhibition at 0.1 µM (σ1-receptor) [%]	inhibition at 0.01 µM (σ1-receptor) [%]	% Binding σ1 10^−6 M (σ1-receptor)	% Binding σ2 10^−6 M (σ2-receptor) [%]	Structure (SMILES)	other results
92.2	40.4	–	–	COC1OC2(CCN(CCc3ccccc3)C2)c2ccccc21 (mixture of isomers) [Example 27, cis/trans-3-Methoxy-1′-(2-Phenylethyl)-3H-spiro[[2]benzofuran-1,3′-pyrrolidin]]	–
–	–	27.6%	56.3	CCCCCCCCN1CCC[C@]2(C1)O[C@H](OC)Cc1ccccc12 (relative stereo) [Example 15, trans-3-Methoxy-1′-octyl-3,4-dihydrospiro[[2]benzopyran-1,3′-piperidin]]	–
80.4	27.4	–	–	COC1OC2(CCN(CCCCc3ccccc3)C2)c2ccccc21 (mixture of isomers) [Example 28, cis/trans-3-Methoxy-1′-(4-Phenylbutyl)-3H-spiro[[2]benzofuran-1,3′-pyrrolidin]]	–
67	32	–	–	COC1Cc2ccccc2C2(CCN(CCCCc3ccccc3)C2)O1 (mixture of isomers) [Example 21, cis/trans-3-Methoxy-1′-(4-phenylbutyl)-3,4-dihydrospiro[[2]benzopyran-1,3′-pyrrolidin]]	–
91.5	41.8	–	–	CCCCCCCCN1CCC2(C1)OC(OC)c1ccccc12 (mixture of isomers) [Example 30, cis/trans-3-Methoxy-1′-octyl-3H-spiro[[2]benzofuran-1,3′-pyrrolidin]]	–
–	–	96.2%	–	COC1Cc2ccccc2C2(CCN(Cc3ccccc3)C2)O1 (mixture of isomers) [Example 18, cis/trans-1′-Benzyl-3-methoxy-3,4-dihydrospiro[[2]benzopyran-1,3′-pyrrolidin]]	Ki (σ1-receptor): 70 nM
–	–	49^ %	18.8	CCCCN1CCC[C@]2(C1)O[C@H](OC)Cc1ccccc12 (racemic) [Example 11, trans-1′-Butyl-3-methoxy-3,4-dihydrospiro[[2]benzopyran-1,3′-piperidin]]	–
89.5	32	–	–	COC1Cc2ccccc2C2(CCN(CCc3ccccc3)C2)O1 (mixture of isomers) [Example 20, cis/trans-3-Methoxy-1′-(2-phenylethyl)-3,4-dihydrospiro[[2]benzopyran-1,3′-pyrrolidin]]	–
–	–	56^ %	7.6	CCCCN1CCC[C@@]2(C1)O[C@H](OC)Cc1ccccc12 (relative stereo) [Example 10, cis-1′-Butyl-3-methoxy-3,4-dihydrospiro[[2]benzopyran-1,3′-piperidin]]	–
70.4	0.8	–	–	CCCCCCCCN1CCC2(C1)OC(OC)Cc1ccccc12 (mixture of isomers) [Example 23, cis/trans-3-Methoxy-1′-octyl-3,4-dihydrospiro[[2]benzopyran-1,3′-pyrrolidin]]	–
–	–	46.3%	45.4	CCCCCCCCN1CCC[C@@]2(C1)O[C@H](OC)Cc1ccccc12 [Example 14, cis-3-Methoxy-1′-octyl-3,4-dihydrospiro[[2]bonzopyran-1,3′-piperidin]]	–
68.9	45.6	–	–	CCCCN1CCC2(C1)OC(OC)c1ccccc12 (mixture of isomers) [Example 29, cis/trans-1′-Butyl-3-methoxy-3H-spiro[[2]benzofuran-1,3′-pyrrolidin]]	–
